Assay results taken from US5900476A, “Therapeutic domains of van Willebrand factor” (The Scripps Research Institute, priority 1992, dated 1999).

What was measured:
GPIbα [1] = experiment: Inhibition of 125I LJ-Ib1 antibody binding to platelets, no modulator
Description: (§1) To assess the inhibitory activity of p5E extracts on antibody binding, a concentration of LJ-Ib1 was first selected which would, in the absence of p5E extracts, provide half-maximal binding.
(§2) LJ-Ib1 was iodinated by the procedure of Fraker, D.J. et al., Biochem. Biophys. Res. Commun., 80, 849-857 (1978) using I^125 from Amersham, Arlington Heights, IL and Iodogen (Pierce Chemical Co., Rockford, IL). Washed platelets were prepared by the albumin density gradient technique of Walsh, et al., Br. J. Haematol., 36, 281-298 (1977), and used at a count of 1 x 10^8 /ml.
The p5E polypeptide extract was purified according to the procedure of Example 4 including final purification of the urea-solubilized inclusion body preparation by dialysis against 6.0M guanidine and urea solutions followed by Q-Sepharose® chromatography.
To evaluate binding, platelets were incubated for 30 minutes at 22-25° C. with LJ-Ib1 (10 μg/ml) and concentrations of purified p5E protein (.002-10.0 μMolar) as indicated in FIGS. 3A and 3B. Inhibition was plotted in the presence of 2 μg/ml botrocetin, Sigma Chemical Co., St. Louis, MO, (FIG. 3B) and in the absence of botrocetin (FIG. 3A).
Less than 5 percent of the ^125 I label bound to the platelets was contributed by labelled substances other than LJ-Ib1 as determined by binding competition experiments in the presence of a 100 fold excess of unlabelled LJ-Ib1. Background labelling was subtracted from data points. Binding of ^125 I LJ-Ib1 was expressed as a percentage of a control assay lacking recombinant polypeptides. […] It is known that botrocetin induces in circulating multisubunit von Willebrand factor and single subunits thereof a conformational change which enhances or permits binding to the GPIbα receptor. […] Structural similarity is therefore indicated.
The interaction the mutant molecules with GPIbα was evaluated using an assay (Sugimoto, M. et al., Biochemistry, 30, 5202-5209 (1991)) based on inhibition of binding of antibody LJ-Ib1 to platelets. The corresponding IC50 values (concentration of fragment required to inhibit 50% of antibody binding) are presented in Table 2 (no modulator) and Table 3 (botrocetin added).
The interaction of rvWF^441-733 with GPIbα was measured by the ability of rvWF^441-733 to inhibit the binding of an anti-GPIbα monoclonal antibody, LJ-IB1, to platelets. This assay, previously described in detail, (Sugimoto, M. et al., Biochemistry, 30, 5202-5208 (1991)) offers the advantage that the binding of LJ-Ib1, unlike that of native vWF, is not dependent on the presence of modulators, like ristocetin or botrocetin. Binding by vWF^441-733 to GPIbα is thought to block the region of GPIbα to which LJ-Ib1 binds.

GPIbα [2] = experiment: Inhibition of 125I LJ-Ib1 antibody binding to platelets in the presence of botrocetin; conditions: botrocetin 2 μg/ml; LJ-Ib1 10 μg/ml; purified p5E protein; read-out: 50% inhibition of 125I LJ-Ib1 binding to platelets
Description: as §1
as §2, with “/ml. […]” for “/ml.”
Less than 5 percent of the ^125 I label bound to the platelets was contributed by labelled substances other than LJ-Ib1 as determined by binding competition experiments in the presence of a 100 fold excess of unlabelled LJ-Ib1. […] Binding of ^125 I LJ-Ib1 was expressed as a percentage of a control assay lacking recombinant polypeptides. […]
The interaction the mutant molecules with GPIbα was evaluated using an assay (Sugimoto, M. et al., Biochemistry, 30, 5202-5209 (1991)) based on inhibition of binding of antibody LJ-Ib1 to platelets. […]
The interaction of rvWF^441-733 with GPIbα was measured by the ability of rvWF^441-733 to inhibit the binding of an anti-GPIbα monoclonal antibody, LJ-IB1, to platelets. […]

NMC-4 antibody = experiment: Immunoblotting with conformation-dependent monoclonal antibody NMC-4; type: binding, murine
Description: Polypeptides expressed from p7E, p7D and pJD18 were further characterized by immunoblotting ("Western blotting") according to a standard procedure Burnett et al., A. Anal. Biochem., 112, 195-203, (1981) and as recommended by reagent suppliers. Samples containing approximately 10 μg of protein from the urea-solubilized and dialyzed inclusion body extracts of host cells (containing p7E, p7D and pJD18 plasmids) were subjected to electrophoresis on 10% polyacrylamide gels, Laemli, U.K. Nature, 227, 680-685 (1970), in the presence of 2% concentration of sodium dodecyl sulfate.
The proteins were blotted and immobilized onto a nitrocellulose sheet (Schleicher and Schuell, Keene, NH) and the pattern was then visualized using immunoreactivity.
The secondary antibody (^125 I-rabbit anti-mouse IgG), labelled by the method of Fraker, P.J. et al. Biochem. Biophys. Res. Commun., 80, 849-857 (1978)), was incubated for 60 minutes at 25° C. on the nitrocellulose sheet. After rinsing, the sheet was developed by autoradiography.
NMC-4 however, has as its epitope the domain of the von Willebrand factor subunit which contains the glycoprotein Ib binding site. […] Id. at 17903. […]

[3] = oxidized form (Cys509-Cys695 bond), absence of modulators, range of results over n experiments, read-out: (Oxidized) IC50
[4] = reduced/alkylated form, absence of modulators, range of results over n experiments, read-out: (Reduced/alkylated) IC

In the case of “rvWF^441-696: C-terminal deletion fragment of the p5E vWF polypeptide terminating at residue 696”, the IC50 (GPIbα [1]; [3]) is reported as 1000 to 1300 nM, the “Ability to inhibit LJ-Ib1 binding to platelets / affinity for GPIbα relative to rvWF^441-733” value (GPIbα [1]; reduced and alkylated form, Table 2) is reported as “greatly reduced ability to inhibit LJ-Ib1 binding to platelets” and the IC50 (GPIbα [1]; [4]) is reported as greater than 4000 nM.
For “rvWF^441-700: C-terminal deletion fragment of the p5E vWF polypeptide terminating at residue 700”, the IC50 (GPIbα [1]; [3]) was 2000 to 3100 nM and the IC50 (GPIbα [1]; [4]) was 500 nM.
“rvWF^441-704: C-terminal deletion fragment of the p5E vWF polypeptide terminating at residue 704” was tested, and the IC50 (GPIbα [1]; [3]) was 2600 to 3200 nM and the IC50 (GPIbα [1]; [4]) was 30 to 40 nM.
With “rvWF^441-733: recombinant vWF residue 441-733 fragment from p5E; Cys 459, 462, 464, 471, 474 replaced by Gly; Cys509-Cys695 retained; oxidized or reduced/alkylated” the “IC50 of reduced and alkylated form relative to oxidized form” value (GPIbα [1]; absence of modulator, FIG. 3A) was “more than ten fold lower”, the IC50 (GPIbα [1]; [3]) was 3000 to 5000 nM and the IC50 (GPIbα [1]; [4]) was 70 to 300 nM. For the same substance, the IC50 (GPIbα [1]; without botrocetin, LJ-Ib1 10 μg/ml, purified p5E protein, read-out: Fifty percent inhibition of 125I LJ-Ib1 binding to platelets) was 10000 nM, the IC50 (GPIbα [2]) was less than 100 nM and the “Increase in binding affinity for NMC-4 compared to cysteine-free p7E species” value (NMC-4 antibody; nonreducing conditions, single chain species, immunoblot) was roughly 120 fold. For the same substance, the “Affinity for NMC-4 after electrophoresis under reducing conditions” value (NMC-4 antibody; reducing conditions, 100 mM DTT) was “remarkably decreased affinity for NMC-4”.
